In patent publication US20210113586A1, “NEW USE AND METHODS OF MODULATING IMMUNE RESPONSES” (DIAMYD MEDICAL AB, priority 2018, published 2021):

How the values were obtained:
Assay type in all cases: cell-based, human
[1] = tested on: non-responder CD4+ T cells; experiment: Proliferation of anti-CD3 stimulated GABA non-responder CD4+ T cells from ND individuals
Experimental: (§1) Peripheral Blood Mononuclear cells (PBMCs) are isolated from blood from donors diagnosed with Type-1 diabetes and healthy controls. Alternatively, CD4-positive cells (T-cells) are further isolated from PBMCs by e.g. MACS beads, FACS or similar technology. […] A reasonable replication, such as 3 cultures of each condition, is performed. A normalized proliferation value for each culture is then calculated by a standard proliferation measurement method, such as by CFSE staining or radioactive thymidine incorporation (requiring additional factors be added during culture) or by staining for proliferation markers.
(§2) In the FIG. 1, the proliferation of cells retrieved from 13 T1D subjects and 15 healthy controls were inspected. […] A normalized proliferation index was calculated for each culture.
The proliferation of freshly isolated human PBMCs or CD4^+ T cells was evaluated with MTT (3-(4,5-Dimethylthiazol-2-yl)-2,5-Diphenyltetrazolium Bromide) assay (Ring et al., 2012). Cells were suspended in complete medium (RPMI 1640 supplemented with 2 mM glutamine, 25 mM HEPES, 10% heat inactivated fetal bovine serum, 100 U/ml penicillin, 10 mg/ml streptomycin, 5 mM R-mercaptoethanol) in a concentration 1 million cells per milliliter. […] The formazan crystal pellet was dissolved in DMSO and the plate was read within 10 min using a Multiskan MS plate reader (Labsystems) at 550 nm. […]

responder CD4+ T cells [2] = experiment: Proliferation of anti-CD3 stimulated GABA responder CD4+ T cells from ND individuals; conditions: Example 1, FIG. 1B; CD4-positive cells from 10 healthy donors; 100 nM GABA
Experimental: as §1, §2
(§3) The proliferation of freshly isolated human PBMCs or CD4^+ T cells was evaluated with MTT (3-(4,5-Dimethylthiazol-2-yl)-2,5-Diphenyltetrazolium Bromide) assay (Ring et al., 2012). Cells were suspended in complete medium (RPMI 1640 supplemented with 2 mM glutamine, 25 mM HEPES, 10% heat inactivated fetal bovine serum, 100 U/ml penicillin, 10 mg/ml streptomycin, 5 mM R-mercaptoethanol) in a concentration 1 million cells per milliliter. The assay was performed in 96-well plates in duplicates or triplicates, where each well was pre-coated with 3 μg/ml anti-CD3 antibody for 3-5 h at 37° C. Each well was loaded with 100,000 cells. Drugs were added to the wells at the relevant concentrations. The plate was incubated for 68 h at 37° C. (95% O2, 5% CO2) and then, a media-soluble tetrazolium dye MTT was added to a final concentration of 1 mM after which the plate was incubated for additional 4 h. The plate was then centrifuged at 2,000 RPM for 10 min to pellet the insoluble purple formazan crystals. The supernatant culture media was collected, stored at −80° C. and used for analysis of cytokines using the multiplex proximity extension assay (PEA). The formazan crystal pellet was dissolved in DMSO and the plate was read within 10 min using a Multiskan MS plate reader (Labsystems) at 550 nm. The optical density value was used as the proliferation index value. Drugs were purchased from Sigma-Aldrich or Tocris (Bristol, UK).

responder CD4+ T cells [3] = experiment: Multiplex PEA of cytokines released into culture medium by responder CD4+ T cells
Experimental: as §3
Plasma samples, and culture media samples that were collected from plate wells at the end of the proliferation assay, were analyzed by multiplex PEA with an Olink Inflammation […] panel, targeting 92 proteins related to inflammation (Olink Proteomics, Uppsala, Sweden) as previously described (Edvinsson et al., 2017, Assarsson et al., 2014, Larsson et al., 2015, Larssen et al., 2017). Briefly, 1 μl of sample (plasma samples or cell culture media samples) or negative control was mixed with 3 μl probe solution containing a set of 92 paires DNA-oligonucleotide-conjugated antibodies. Upon recognition of a target protein by a pair of probes, the DNA oligonucletodies on the antibodies are brought in proximity and hybridize to each other, followed by enzymatic DNA polymerization to form a new DNA molecule. The newly formed DNA molecule is then amplified and quantified using a microfluidic real-time qPCR, BioMark™ HD (Fluidigm, South San Francisco, Calif., USA). The generated quantification cycle (Cq) values are normalized against spiked-in controls to convert Cq values to Normalized Protein eXpression (NPX) value on log2 scale. NPX is an arbitrary unit, which is positively correlated to protein concentration. These NPX data were then converted to linear data, using the formula 2^NPX, prior to further statistical analysis. Limit of detection (LOD) for each protein was defined as three standard deviations above the background. Proteins with levels below LOD were excluded from further data analysis.

[4] = GABA 100 nM, responder CD4+ T cells, normalized to control
[5] = GABA 500 nM, responder CD4+ T cells, normalized to control

With `NCCCC(=O)O` [GABA, gamma-aminobutyric acid] the “proliferation in the presence of GABA” value ([1]; Example 1, FIG. 1A, CD4-positive cells from 5 healthy donors, 100 nM GABA) was “did not proliferate less”, the “decrease of proliferation by GABA” value ([1]; Example 2, non-responder T cell population) was “did not decrease” and the “proliferation in the presence of GABA” value (responder CD4+ T cells [2]) was “did proliferate less”. The “number of cytokines whose release was significantly decreased” value (responder CD4+ T cells [3]; 100 nM GABA) was 27 cytokines, the “number of cytokines whose release was significantly decreased” value (responder CD4+ T cells [3]; 500 nM GABA) was 25 cytokines and the “4E-BP1 in culture medium, % Mean” value (responder CD4+ T cells [3]; [4]) was 67.1%. The “ADA in culture medium, % Mean” value (responder CD4+ T cells [3]; [4]) was 79.3%, the “CASP-8 in culture medium, % Mean” value (responder CD4+ T cells [3]; [4]) was 66.3% and the “CCL19 in culture medium, % Mean” value (responder CD4+ T cells [3]; [4]) was 68.7%. For the same compound, the “CCL20 in culture medium, % Mean” value (responder CD4+ T cells [3]; [4]) was 61.5%, the “CSCP1 in culture medium, % Mean” value (responder CD4+ T cells [3]; [4]) was 60.6% and the “CSF-1 in culture medium, % Mean” value (responder CD4+ T cells [3]; [4]) was 84.2%. The “CXCL10 in culture medium, % Mean” value (responder CD4+ T cells [3]; [4]) was 62.7%, the “CXCL11 in culture medium, % Mean” value (responder CD4+ T cells [3]; [4]) was 69.1% and the “DNER in culture medium, % Mean” value (responder CD4+ T cells [3]; [4]) was 94.6%. The “Flt3L in culture medium, % Mean” value (responder CD4+ T cells [3]; [4]) was 79.3%, the “IL-6 in culture medium, % Mean” value (responder CD4+ T cells [3]; [4]) was 71.6% and the “IL-13 in culture medium, % Mean” value (responder CD4+ T cells [3]; [4]) was 69.9%. For the same compound, the “IL-18R1 in culture medium, % Mean” value (responder CD4+ T cells [3]; [4]) was 76.1%, the “IL-24 in culture medium, % Mean” value (responder CD4+ T cells [3]; [4]) was 71.8% and the “LAP TGF-beta-1 in culture medium, % Mean” value (responder CD4+ T cells [3]; [4]) was 79.6%. For the same compound, the “LIF in culture medium, % Mean” value (responder CD4+ T cells [3]; [4]) was 66.9%, the “MCP-1 in culture medium, % Mean” value (responder CD4+ T cells [3]; [4]) was 76.9% and the “OPG in culture medium, % Mean” value (responder CD4+ T cells [3]; [4]) was 70.5%. For the same compound, the “OSM in culture medium, % Mean” value (responder CD4+ T cells [3]; [4]) was 76.4%, the “STAMPB in culture medium, % Mean” value (responder CD4+ T cells [3]; [4]) was 68.6% and the “TNFRSF9 in culture medium, % Mean” value (responder CD4+ T cells [3]; [4]) was 86.3%. For the same compound, the “TNFSF14 in culture medium, % Mean” value (responder CD4+ T cells [3]; [4]) was 70.6%, the “TRAIL in culture medium, % Mean” value (responder CD4+ T cells [3]; [4]) was 75.9% and the “TRANCE in culture medium, % Mean” value (responder CD4+ T cells [3]; [4]) was 89.3%. For the same compound, the “μPA in culture medium, % Mean” value (responder CD4+ T cells [3]; [4]) was 78.9%, the “4E-BP1 in culture medium, % Mean” value (responder CD4+ T cells [3]; [5]) was 50.6% and the “CASP-8 in culture medium, % Mean” value (responder CD4+ T cells [3]; [5]) was 61.4%. The “CCL19 in culture medium, % Mean” value (responder CD4+ T cells [3]; [5]) was 59.9%, the “CCL20 in culture medium, % Mean” value (responder CD4+ T cells [3]; [5]) was 66.0% and the “CD40 in culture medium, % Mean” value (responder CD4+ T cells [3]; [5]) was 77.8%. The “CDCP1 in culture medium, % Mean” value (responder CD4+ T cells [3]; [5]) was 44.3%, the “CXCL1 in culture medium, % Mean” value (responder CD4+ T cells [3]; [5]) was 72.2% and the “CXCL5 in culture medium, % Mean” value (responder CD4+ T cells [3]; [5]) was 66.0%. For the same compound, the “CXCL9 in culture medium, % Mean” value (responder CD4+ T cells [3]; [5]) was 62.2%, the “CXCL10 in culture medium, % Mean” value (responder CD4+ T cells [3]; [5]) was 60.6% and the “CXCL11 in culture medium, % Mean” value (responder CD4+ T cells [3]; [5]) was 66.6%. The “DNER in culture medium, % Mean” value (responder CD4+ T cells [3]; [5]) was 68.6%, the “IFM-gamma in culture medium, % Mean” value (responder CD4+ T cells [3]; [5]) was 73.2% and the “IL-5 in culture medium, % Mean” value (responder CD4+ T cells [3]; [5]) was 76.0%. The “IL-8 in culture medium, % Mean” value (responder CD4+ T cells [3]; [5]) was 81.2%, the “IL-12B in culture medium, % Mean” value (responder CD4+ T cells [3]; [5]) was 69.4% and the “IL-13 in culture medium, % Mean” value (responder CD4+ T cells [3]; [5]) was 83.0%. The “IL-18R1 in culture medium, % Mean” value (responder CD4+ T cells [3]; [5]) was 85.8%, the “OPG in culture medium, % Mean” value (responder CD4+ T cells [3]; [5]) was 66.4% and the “SCF in culture medium, % Mean” value (responder CD4+ T cells [3]; [5]) was 61.8%. The “STAMPB in culture medium, % Mean” value (responder CD4+ T cells [3]; [5]) was 57.8%, the “TNF in culture medium, % Mean” value (responder CD4+ T cells [3]; [5]) was 47.8% and the “TNFB in culture medium, % Mean” value (responder CD4+ T cells [3]; [5]) was 69.0%. For the same compound, the “TNFSF14 in culture medium, % Mean” value (responder CD4+ T cells [3]; [5]) was 60.0%, the “μPA in culture medium, % Mean” value (responder CD4+ T cells [3]; [5]) was 68.0% and the “number of cytokines whose secretion was decreased in total” value (responder CD4+ T cells [3]; responder group, concentration-dependent (100, 500 nM)) was 37 cytokines.
